Laboratory results taken from PubChem BioAssay (NCI).
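These data come from cells grown in 96-well plates and exposed to compound for 48 hours at five concentrations. TGI: total growth inhibition.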 Where a SMILES comes first, the peptide text is derived from it. The star is where a group is joined. Boc = CC(C)(C)OC(=O)*; OBn = c1ccc(CO*)cc1

Tests used:
Assay in all cases: inhibition of tumour cell growth, NCI panel, 48 h
[1] = system: SK-MEL-2 melanoma
[2] = system: SN12C renal
[3] = system: DLD-1 colon
[4] = system: RXF-631 renal
[5] = system: KM20L2 colon
[6] = system: DMS 114 small cell lung
[7] = system: DMS 273 small cell lung
[8] = system: XF 498 CNS
[9] = system: HOP-18 NSCLC
[10] = system: M19-MEL melanoma
[11] = system: SNB-78 CNS
[12] = system: LXFL 529 NSCLC

## COc1cc(/C=C2/C(=O)N=C(NC(C)=O)N2C)ccc1OC(C)=O
[1]
  TGI: > 100 µM
[2]
  TGI: > 100 µM

## N#Cc1nc(C2SCCCS2)oc1N
[1]
  TGI: > 100 µM
[2]
  TGI: > 100 µM

## Cc1cn(C2CC(N=[N+]=[N-])C(CO)O2)c(=O)n(CCCCO)c1=O (stereo unspecified)
[1]
  TGI: > 100 µM
[2]
  TGI: > 100 µM

## O=C1c2ccccc2-n2c1nc1cc(Cl)ccc1c2=O
[1]
  TGI: > 100 µM
[2]
  TGI: > 100 µM

## CC(C)C(NC(=O)CNC(=O)C1CCCN1C(=O)C(NC(=O)OC(C)(C)C)C(C)C)C(=O)NCC(=O)OCc1ccccc1 (stereo unspecified) (Boc-VPGVG-OBn; configuration not given here)
[1]
  TGI: > 100 µM
[2]
  TGI: > 100 µM

## O=C(O)c1nc2cc(C(F)(F)F)ccc2[nH]c1=O
[1]
  TGI: > 100 µM
[2]
  TGI: > 100 µM

## Cc1cccc(Nc2nc(NNC(=O)Cc3ccccc3)nc(NNC(=O)c3ccncc3)n2)c1
[2]
  TGI: > 10 µM

## Nc1nc(NCC2(CO)CC(CCc3ccccc3)C2)cc(=O)[nH]1 (stereo unspecified)
[1]
  TGI: > 100 µM
[2]
  TGI: > 100 µM

## COc1cc2c(cc1OC)C1(c3ccccc3)ON=C(c3ccccc3)N1CS2 (stereo unspecified)
[3]
  TGI: > 100 µM
[4]
  TGI: > 100 µM
[5]
  TGI: > 100 µM
[6]
  TGI: > 100 µM
[1]
  TGI: > 100 µM
[7]
  TGI: > 100 µM
[8]
  TGI: > 100 µM
[9]
  TGI: > 100 µM
[10]
  TGI: > 100 µM
[11]
  TGI: > 100 µM
[12]
  TGI: > 100 µM
[2]
  TGI: > 100 µM

## CC(C(=O)N1C(=O)N(C(=O)[C@H](C)C(O)c2ccccc2)[C@H](c2ccccc2)[C@H]1c1ccccc1)[C@@H](O)c1ccccc1 (stereo partly specified)
[1]
  TGI: 42.6 µM
[2]
  TGI: > 100 µM

## Cc1cc(S(=O)(=O)Nc2nc(N)nc(N(C)C)n2)c(SC(C(=O)O)c2ccccc2)cc1Cl (stereo unspecified)
[1]
  TGI: > 10 µM
[2]
  TGI: > 10 µM

## Cc1ccc(N=Nc2c(C)nn(C(=O)CC(=O)Nc3ccc(Cl)cc3)c2C)cc1C
[1]
  TGI: > 100 µM
[2]
  TGI: > 100 µM

## O=C1CSC(c2ccccc2[N+](=O)[O-])N1c1ccc(-n2c(-c3ccccc3)nc3ccccc3c2=O)cc1 (stereo unspecified)
[1]
  TGI: > 100 µM
[2]
  TGI: > 100 µM

## Cc1cccc2c(N)c3cccc(C(=O)NCCN4CCOCC4)c3nc12
[1]
  TGI: 2.61 µM
[2]
  TGI: 7.97 µM

## CC1=C2c3ccccc3N(S(=O)(=O)c3ccccc3)[C@H]2[C@H](C(=O)N2C3CC4CC[C@@]3(CS2(=O)=O)C4(C)C)CC1 (stereo partly specified)
[2]
  TGI: > 100 µM

## Cc1ccc(Nc2cc(=O)[nH]c(=O)[nH]2)cc1CS
[1]
  TGI: > 100 µM
[2]
  TGI: > 100 µM

## CCCCC1=CC1(C#N)[N+](=O)[O-] (stereo unspecified)
[2]
  TGI: > 100 µM

## ClCCCC1COc2ccccc2O1 (stereo unspecified)
[2]
  TGI: > 100 µM

## Nc1ccc(-c2nc3ccccc3s2)cc1I
[1]
  TGI: > 100 µM
[2]
  TGI: > 100 µM

## Cc1cn(C2CC(N=[N+]=[N-])C(C(=O)O)O2)c(=O)[nH]c1=O (stereo unspecified)
[1]
  TGI: > 100 µM
[2]
  TGI: > 100 µM

## CCN1C(=O)C(N=[N+]=[N-])(c2ccccc2)C(=O)c2ccccc21 (stereo unspecified)
[3]
  TGI: > 100 µM
[5]
  TGI: > 100 µM
[6]
  TGI: > 100 µM
[1]
  TGI: > 100 µM
[7]
  TGI: > 100 µM
[8]
  TGI: 33 µM
[9]
  TGI: > 100 µM
[10]
  TGI: > 100 µM
[11]
  TGI: > 100 µM
[12]
  TGI: > 100 µM
[2]
  TGI: > 100 µM

## CC(=O)NC(CCCOC(C)=O)C(=O)NC(CCCOC(C)=O)C(=O)NC(CCCOC(C)=O)C(=O)NC(Cc1ccc([N+](=O)[O-])cc1)C(=O)NCC(=O)OCc1ccccc1 (stereo unspecified)
[1]
  TGI: > 100 µM
[2]
  TGI: > 100 µM

## O=[N+]([O-])c1cc(C(F)(F)F)ccc1S(=O)(=O)N[C@@H]1CCCC[C@H]1NS(=O)(=O)c1ccc(C(F)(F)F)cc1[N+](=O)[O-]
[1]
  TGI: 9.88 µM
[2]
  TGI: 12.6 µM

## O=C1Cc2c(-c3ccccc3)cc(-c3ccc4ccccc4c3)nc2-c2ccccc2N1
[1]
  TGI: > 100 µM
[2]
  TGI: 43.6 µM

## O=C1NCC2(CCNCC2)N1
[2]
  TGI: > 100 µM

## COC(=O)C(CCSc1ccccc1)C(=O)OC
[1]
  TGI: > 100 µM
[2]
  TGI: > 100 µM

## O=C(Oc1ccc(OC(Oc2ccccc2)c2ccccc2)cc1)c1ccccc1 (stereo unspecified)
[1]
  TGI: 36.6 µM
[2]
  TGI: > 31.6 µM

## CC(=O)OC(C#N)CC(C)(C)/[N+]([O-])=[N+](\[O-])C(C)(C)CC(C#N)OC(C)=O (stereo unspecified)
[1]
  TGI: > 100 µM
[2]
  TGI: 35.7 µM

## Cc1nc2ccc(S(=O)(=O)Nc3ccccc3Cl)cc2c(=O)n1NC(=O)CNc1ccccc1Cl
[1]
  TGI: > 100 µM
[2]
  TGI: > 100 µM

## CC1C(=O)CC[C@@]2(C)C(=O)CCCC12O (stereo partly specified)
[1]
  TGI: > 100 µM
[2]
  TGI: > 100 µM

## COc1cc2c(cc1O)-c1c(OC)c(O)cc3c1C(C2)N(C)CC3 (stereo unspecified)
[1]
  TGI: > 100 µM
[2]
  TGI: > 100 µM

## CC(=O)O[C@H]1CC[C@@]2(C)C(=CC[C@H]3[C@@H]4C/C(=C\c5ccncc5)[C@H](OC(C)=O)[C@@]4(C)CC[C@@H]32)C1
[1]
  TGI: 33.3 µM
[2]
  TGI: 33 µM

## CCOC(=O)NC(C(C(=O)OCC)C(=O)OCC)(C(F)(F)F)C(F)(F)F
[1]
  TGI: > 100 µM
[2]
  TGI: > 100 µM

## CSc1n[nH]c2n[nH]c(C)c12
[1]
  TGI: > 100 µM
[2]
  TGI: > 100 µM

## N#Cc1c(-c2ccccc2)c(C#N)c(=S)n(C2OCC(O)C(O)C2O)c1N (stereo unspecified)
[1]
  TGI: > 100 µM
[2]
  TGI: > 100 µM

## Cc1ccc(C2SC(N)=Nc3c2c(C)nn3C(=O)c2ccc(Cl)cc2)cc1 (stereo unspecified)
[1]
  TGI: > 10 µM
[2]
  TGI: > 10 µM

## COc1ccc(C(=O)C(CC2C(=O)CC(C)(C)C(C(=O)C(=O)Nc3c(C)cccc3C)C2=O)c2ccc(OC)cc2)cc1 (stereo unspecified)
[1]
  TGI: > 100 µM
[2]
  TGI: > 100 µM

## Nc1ccn(CC(CO)CC(c2ccccc2)P(=O)(O)O)c(=O)n1 (stereo unspecified)
[3]
  TGI: > 100 µM
[5]
  TGI: > 100 µM
[6]
  TGI: > 100 µM
[1]
  TGI: > 100 µM
[7]
  TGI: > 100 µM
[8]
  TGI: > 100 µM
[9]
  TGI: > 100 µM
[10]
  TGI: > 100 µM
[11]
  TGI: > 100 µM
[12]
  TGI: > 100 µM
[2]
  TGI: > 100 µM

## CN(C)C=Nc1c(Br)cc(Br)c2nonc12
[1]
  TGI: > 100 µM
[2]
  TGI: > 100 µM

## C=CCN(c1cc(OCc2ccccc2)c2c(c1)c(C)cn2S(=O)(=O)c1ccccc1)S(C)(=O)=O
[1]
  TGI: > 100 µM
[2]
  TGI: > 100 µM

## C=CCOCn1ccc(NC(=O)c2ccccc2)nc1=O
[2]
  TGI: > 100 µM

## O=C1C(Cl)C(c2cccc(Br)c2)N1c1c(O)c(Cl)cc(Br)c1Cl (stereo unspecified)
[1]
  TGI: 25 µM
[2]
  TGI: 28.3 µM
